The text below walks through data of patent US8029980B2, “Identification and use of agents that modulate oncogenic transcription agent activity” (The Board of Trustees of the University of Illinois, priority 2006, dated 2011).

The test system of assay [1] is FoxM1 target genes Cdc25B, Survivin, and CENPB. Nature of the assay: Real-time quantitative RT-PCR of FoxM1 target gene mRNA in C3-Luc cells. It is filed as cell-based, human. Particulars: 24 hrs, vs DMSO. As to the method:
FIG. 2. Siomycin A inhibits endogenous FoxM1 transcriptional activity. (A) C3-Luc cells without doxycycline induction, were treated with increasing dose of Siomycin A and luciferase activity was determined as described in Example 1. (B) C3-Luc cells treated either with DMSO (control) or Siomycin A were harvested 24 hrs later and the RNA was subjected to real-time RT-PCR for quantitation of mRNA levels of FoxM1 target genes Cdc25B, Survivin, and CENPB. (C) C3-Luc cells treated as indicated were harvested 24 hrs later and used for immunoblot analysis to determine the levels of survivin, and p21^WAF1. β-actin protein levels were used as loading control.
Cells treated with Siomycin A or DMSO (control) were harvested 24 hrs later and RNA was extracted using the TRIzol reagent (15596-026; Invitrogen). cDNA was prepared from this RNA using the Bio-Rad cDNA synthesis kit. The following sense (S) and antisense (AS) primer sequences and annealing temperatures (Ta) were used to amplify and measure the amount of human mRNA by real-time RT-PCR: FoxM1-S, 5′-GGAGGAAATGCCACACTTAGCG-3′ (SEQ ID NO: 1), and FoxM1-AS, 5′-TAGGACTTCTTGGGTCTTGGGGTG-3′ (SEQ ID NO: 2) (Ta, 55.7° C.); survivin-S, 5′-TCAAGGACCACCGCATCTCTA-3′ (SEQ ID NO: 3), and survivin-AS, 5′-TGAAGCAGAAGAAACACTGGGC-3′ (SEQ ID NO: 4) (Ta, 61° C.); CENPB-S, 5′-ATTCAGACAGTGAGGAAGAGGACG-3′ (SEQ ID NO: 5), and CENPB-AS, 5′-CATCAATGGGGAAGGAGGTCAG-3′ (SEQ ID NO: 6) (Ta, 58° C.); Cdc25B-S, 5′-CCCTTCCCTGTTTTCCTTTC-3′ (SEQ ID NO: 7), and Cdc25B-AS, 5′-ACACACACTCCTGCCATAGG-3′ (SEQ ID NO: 8) (Ta, 61.7° C.). These real-time RT-PCR RNA levels were normalized to human cyclophilin mRNA levels, and these primers are as follows: cyclophilin-S, 5′-GCAGACAAGGTCCCAAAGACAG-3′ (SEQ ID NO: 9), and cyclophilin-AS, 5′-CACCCTGACACATAAACCCTGG-3′ (SEQ ID NO: 10) (Ta, 55.7° C.).

The target of another assay is T1, FoxM1 (Homo sapiens, UniProt Q08050).
T1 construct: endogenous in cells; host or cells: C3-Luc (U2OS)
T1 sequence (Q08050 1-763): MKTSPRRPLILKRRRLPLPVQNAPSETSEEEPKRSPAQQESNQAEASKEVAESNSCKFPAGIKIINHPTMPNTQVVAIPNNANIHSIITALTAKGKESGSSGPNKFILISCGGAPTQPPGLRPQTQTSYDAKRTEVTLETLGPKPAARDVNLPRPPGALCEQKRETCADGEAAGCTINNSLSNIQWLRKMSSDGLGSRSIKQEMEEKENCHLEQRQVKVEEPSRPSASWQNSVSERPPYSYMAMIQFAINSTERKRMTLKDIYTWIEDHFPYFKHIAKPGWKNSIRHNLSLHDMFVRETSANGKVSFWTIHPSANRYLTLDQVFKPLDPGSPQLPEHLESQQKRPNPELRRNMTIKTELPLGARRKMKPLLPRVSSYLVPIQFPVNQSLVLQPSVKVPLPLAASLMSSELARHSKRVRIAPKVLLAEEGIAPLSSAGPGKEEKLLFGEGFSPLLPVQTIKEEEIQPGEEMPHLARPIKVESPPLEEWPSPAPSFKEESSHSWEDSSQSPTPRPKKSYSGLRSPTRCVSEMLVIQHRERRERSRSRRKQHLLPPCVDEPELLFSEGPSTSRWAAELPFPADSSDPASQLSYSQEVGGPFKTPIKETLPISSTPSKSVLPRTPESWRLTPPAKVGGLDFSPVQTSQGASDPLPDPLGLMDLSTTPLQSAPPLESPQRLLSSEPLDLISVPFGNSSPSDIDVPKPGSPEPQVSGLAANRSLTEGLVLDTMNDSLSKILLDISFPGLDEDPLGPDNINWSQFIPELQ
The experiment in a line: FoxM1 immunoprecipitation and MPM2 immunoblot for phospho-FoxM1 in C3-Luc cells. To be noted: 100 μM, 8 hrs. In kind it is cell-based. The procedure: (§1) Immunoblotting was performed as described (18-20) with antibodies specific for p21 (556431; BD Pharmingen), survivin (sc-10811; Santa Cruz), cleaved caspase-3 (9664; Cell Signaling), and β-actin (A5441; Sigma) antibodies. Immunoblot for FoxM1 was done using the previously generated rabbit antisera (2), and phospho-FoxM1 was detected using the MPM2 monoclonal antibody (Upstate Biotechnology) which recognizes the phosphorylated protein sequence phosphoserine/phosphothreonine-proline.
For the immunoprecipitation experiment, FoxM1 antisera (2) was used along with protein A-sepharose to pull down FoxM1 protein, which was resolved on an SDS-PAGE gel and transferred to PVDF membrane. The total and phospho-FoxM1 levels were determined by using the antibodies described above.
Based on this observation, we hypothesized that Siomycin A may inhibit FoxM1 transcriptional activity by blocking this phosphorylation event. In order to test this hypothesis, we treated C3-Luc cells with DMSO (control) or 100 μM of Siomycin A for 8 hrs and immunoprecipitated FoxM1 from the lysates. We then analyzed these samples for phospho-FoxM1 levels by immunoblotting with MPM2, a monoclonal antibody that recognizes phosphorylated Cdk1 and Cdk2 sites.
(In general: Immunoblotting shows a protein as a band on a membrane.)

A further assay has as its system C3-Luc cells. The experiment in a line: Soft agar assay (anchorage-independent growth). It is filed as cell-based, human. Particulars: 10 μM, 1 μg/mL doxycycline, 4 weeks. The procedure: The assay was done as described previously (21, 22). Briefly C3-Luc cells were plated subconfluently in six-well plates in 0.7% agarose on a 1.4% agarose bed in the presence or absence of 10 μM of Siomycin A and 1 μg/mL of doxycycline. Three times a week, the tissue-culture medium containing these agents was replaced. After 4 weeks, cell colonies that were larger than 1 mm in size were scored.

Assay [2] has as its system Leukemia cell lines CEM, HL60 and U937. Nature of the assay: FoxM1 and cleaved caspase-3 immunoblot in leukemia cell lines. It is filed as cell-based, human. To be noted: 5 μM, 48 hrs. As to the method: FIG. 10. […] Leukemia cell lines CEM, HL60 and U937 were treated with 5 μM Siomycin A and thiostrepton, respectively, for 48 hrs and the cell lysates were analyzed for the levels of FoxM1 and cleaved caspase-3 by immunoblotting.
as §1
Next we treated leukemia cell lines with mutant p53 CEM, HL60 and U937 with 5 μM of these compounds for 48 hrs and the cell lysates were analyzed for the levels of FoxM1 and cleaved caspase-3 by immunoblotting.

As for `C=C(NC(=O)C(=C)NC(=O)c1csc(C2=N[C@@H]3c4csc(n4)[C@H]4NC(=O)c5csc(n5)[C@H]([C@](C)(O)[C@@H](C)O)NC(=O)[C@H]5CSC(=N5)/C(=C/C)NC(=O)[C@H]([C@@H](C)O)NC(=O)c5csc(n5)[C@]3(CC2)NC(=O)[C@H](C)NC(=O)C(=C)NC(=O)C(=C)NC(=O)[C@H](C(C)C)N[C@@H]2C=Cc3c([C@H](C)O)cc(nc3[C@H]2O)C(=O)O[C@@H]4C)n1)C(N)=O` [Siomycin A], in assay [1], the “CENPB mRNA level compared to initial level” value came to 15%, the “Cdc25B mRNA level relative to basal value” was found to be 32% and the “Survivin mRNA level compared to initial level” value was 48%. Also, on FoxM1, the phospho-FoxM1 levels result was “decrease in phospho-FoxM1” and the “total FoxM1 levels” value is “only marginally reduced”. Moreover, the “anchorage-independent growth (number of colonies on soft agar)” value in the assay with C3-Luc cells is given as “dramatically reduced the anchorage-independent growth to less than basal untreated value”. In addition, in assay [2], the FoxM1 expression result was “inhibit FoxM1 expression” and the “apoptosis (cleaved caspase-3)” value is “induce apoptosis”.
